Experimental data as given in the NIST ThermoML archive (doi:10.1021/acs.jced.8b00132).
Several values for one entry are separate records, joined by “and”; a condition that tells them apart may be missing. Equal entries are not always repeated.

Details: transient hot wire

O=C(C(F)(F)C(F)(F)F)C(F)(C(F)(F)F)C(F)(F)F [dodecafluoro-2-methylpentan-3-one]
Details | thermal conductivity
331.38 K, 45565 kPa, Liquid | 0.06924 W/m/K
331.38 K, 45571 kPa, Liquid | 0.06916 W/m/K
331.39 K, 36560 kPa, Liquid | 0.06692 W/m/K
331.4 K, 36561 kPa, Liquid | 0.0672 W/m/K
331.51 K, 102 kPa, Gas | 0.01402 W/m/K
331.54 K, 107 kPa, Gas | 0.01383 W/m/K
331.55 K, 3950 kPa, Liquid | 0.05388 W/m/K
331.55 K, 3951 kPa, Liquid | 0.05379 W/m/K
331.56 K, 72 kPa, Gas | 0.01361 W/m/K
331.58 K, 74 kPa, Gas | 0.01363 W/m/K
331.64 K, 28068 kPa, Liquid | 0.06457 W/m/K
331.64 K, 28075 kPa, Liquid | 0.06383 W/m/K
331.67 K, 20446 kPa, Liquid | 0.06141 W/m/K
331.67 K, 20447 kPa, Liquid | 0.06118 W/m/K
331.7 K, 14109 kPa, Liquid | 0.0585 W/m/K
331.71 K, 14116 kPa, Liquid | 0.05838 W/m/K
331.75 K, 8577 kPa, Liquid | 0.05613 W/m/K
331.75 K, 69214 kPa, Liquid | 0.07577 W/m/K
331.76 K, 8578 kPa, Liquid | 0.0562 W/m/K
331.76 K, 69231 kPa, Liquid | 0.07536 W/m/K
331.77 K, 57729 kPa, Liquid | 0.0724 W/m/K
331.77 K, 57733 kPa, Liquid | 0.07259 W/m/K
331.79 K, 239 kPa, Liquid | 0.05138 W/m/K
331.79 K, 45573 kPa, Liquid | 0.06907 W/m/K
331.8 K, 242 kPa, Liquid | 0.05139 W/m/K
331.8 K, 45574 kPa, Liquid | 0.06925 W/m/K
331.81 K, 102 kPa, Gas | 0.01364 W/m/K
331.83 K, 106 kPa, Gas | 0.01386 W/m/K
331.83 K, 36555 kPa, Liquid | 0.06649 W/m/K
331.83 K, 36558 kPa, Liquid | 0.06686 W/m/K
331.84 K, 107 kPa, Liquid | 0.05166 W/m/K and 0.05159 W/m/K
331.86 K, 71 kPa, Gas | 0.01366 W/m/K
331.89 K, 74 kPa, Gas | 0.01368 W/m/K
332.07 K, 3947 kPa, Liquid | 0.05394 W/m/K
332.08 K, 3946 kPa, Liquid | 0.05395 W/m/K
332.12 K, 28065 kPa, Liquid | 0.06395 W/m/K
332.12 K, 28069 kPa, Liquid | 0.06418 W/m/K
332.14 K, 107 kPa, Gas | 0.01388 W/m/K
332.18 K, 20442 kPa, Liquid | 0.0612 W/m/K and 0.06122 W/m/K
332.19 K, 71 kPa, Gas | 0.0138 W/m/K
332.19 K, 69215 kPa, Liquid | 0.07588 W/m/K
332.19 K, 69218 kPa, Liquid | 0.07551 W/m/K
332.22 K, 57721 kPa, Liquid | 0.07263 W/m/K
332.22 K, 57724 kPa, Liquid | 0.07259 W/m/K
332.23 K, 74 kPa, Gas | 0.01373 W/m/K
332.23 K, 14110 kPa, Liquid | 0.05828 W/m/K
332.23 K, 14111 kPa, Liquid | 0.05807 W/m/K
332.27 K, 45566 kPa, Liquid | 0.06911 W/m/K
332.28 K, 45563 kPa, Liquid | 0.06904 W/m/K
332.3 K, 8573 kPa, Liquid | 0.0558 W/m/K
332.3 K, 8574 kPa, Liquid | 0.05582 W/m/K
332.32 K, 36553 kPa, Liquid | 0.06631 W/m/K
332.33 K, 36552 kPa, Liquid | 0.06642 W/m/K
332.35 K, 238 kPa, Liquid | 0.05149 W/m/K
332.35 K, 239 kPa, Liquid | 0.05131 W/m/K
332.38 K, 108 kPa, Liquid | 0.05165 W/m/K
332.39 K, 107 kPa, Liquid | 0.05161 W/m/K
332.47 K, 102 kPa, Gas | 0.01373 W/m/K
332.56 K, 71 kPa, Gas | 0.01389 W/m/K
332.59 K, 73 kPa, Gas | 0.01379 W/m/K
332.65 K, 28066 kPa, Liquid | 0.0639 W/m/K
332.66 K, 28069 kPa, Liquid | 0.06388 W/m/K
332.68 K, 3944 kPa, Liquid | 0.05341 W/m/K
332.68 K, 3949 kPa, Liquid | 0.05349 W/m/K
332.68 K, 69200 kPa, Liquid | 0.07562 W/m/K
332.69 K, 69200 kPa, Liquid | 0.07558 W/m/K
332.73 K, 20437 kPa, Liquid | 0.06118 W/m/K
332.73 K, 57710 kPa, Liquid | 0.07255 W/m/K
332.73 K, 57718 kPa, Liquid | 0.07251 W/m/K
332.74 K, 20439 kPa, Liquid | 0.06126 W/m/K
332.8 K, 45557 kPa, Liquid | 0.06917 W/m/K
332.81 K, 45558 kPa, Liquid | 0.06905 W/m/K
332.82 K, 14107 kPa, Liquid | 0.05846 W/m/K
332.83 K, 102 kPa, Gas | 0.01371 W/m/K
332.83 K, 14108 kPa, Liquid | 0.05829 W/m/K
332.85 K, 107 kPa, Gas | 0.01391 W/m/K
332.87 K, 36553 kPa, Liquid | 0.06645 W/m/K
332.87 K, 36556 kPa, Liquid | 0.06639 W/m/K
332.91 K, 8572 kPa, Liquid | 0.05573 W/m/K
332.91 K, 8573 kPa, Liquid | 0.05574 W/m/K
332.94 K, 70 kPa, Gas | 0.01377 W/m/K
332.97 K, 73 kPa, Gas | 0.01383 W/m/K
332.97 K, 230 kPa, Liquid | 0.05124 W/m/K
332.98 K, 237 kPa, Liquid | 0.05109 W/m/K
